Results as given in patent US20140073639A1 (priority 2012, published 2014).
Converted amounts (≈) assume the structure as drawn.

What was measured:
[1] = assay type: cell-based
S. MRSA = assay: microbe, parasite or virus in culture; assay type: cell-based; details: 3 μM

O=C([O-])C(Cc1ccccc1)N1C(=O)/C(=C\c2ccc(-c3ccc(Cl)c(Cl)c3)o2)NC1=S.[Na+] (centres unmarked) [Cmpd 66]
MIC, 25% Serum [1]: >250 µM
MIC, No Serum [1]: 7.8 µM
S. MRSA 3 μM (growth inhibition) (S. MRSA): 0.9

O=C(O)C(Cc1ccccc1)N1C(=O)/C(=C\c2ccc(-c3ccc(Cl)nc3Cl)o2)NC1=S (centres unmarked) [Cmpd 73]
MIC, 25% Serum [1]: >250 µM
MIC, No Serum [1]: 125 µM (≈ 61 µg/mL)

O=C(O)c1cc(-c2ccc(/C=C3/NC(=S)N(C(Cc4ccccc4)C(=O)O)C3=O)o2)ccc1Cl (centres unmarked) [Cmpd 74]
MIC, 25% Serum [1]: >250 µM
MIC, No Serum [1]: >250 µM

O=C(O)C(Cc1ccccc1)N1C(=O)/C(=C\c2ccc(-c3ccc(Cl)c(Cl)c3)[nH]2)NC1=S (centres unmarked) [Cmpd 75]
MIC, 25% Serum [1]: >250 µM
MIC, No Serum [1]: 62.5 µM (≈ 30.4 µg/mL)

O=C(O)C(Cc1ccccc1)N1C(=O)/C(=C\c2ccc(-c3ccc(Cl)c(Cl)n3)o2)NC1=S (centres unmarked) [Cmpd 76]
MIC, 25% Serum [1]: >250 µM
MIC, No Serum [1]: 62.5 µM (≈ 30.5 µg/mL)

O=C(O)c1cccc(N2C(=O)/C(=C\c3ccc(-c4ccc(Cl)c(Cl)c4)o3)NC2=S)c1 [Cmpd 77]
MIC, 25% Serum [1]: >250 µM
MIC, No Serum [1]: 31.3 µM (≈ 14.4 µg/mL)

O=C(O)C(Cc1ccccc1)N1C(=O)/C(=C\c2ncc(-c3ccc(Cl)c(Cl)c3)o2)NC1=S (centres unmarked) [Cmpd 78]
MIC, 25% Serum [1]: >250 µM
MIC, No Serum [1]: 250 µM (≈ 122 µg/mL)

O=C(O)CN1C(=O)N/C(=C/c2ccc(-c3ccc(Cl)c(Cl)c3)o2)C1=O [Cmpd 79]
MIC, 25% Serum [1]: >250 µM
MIC, No Serum [1]: >250 µM

O=C(O)C(Cc1ccccc1)N1C(=O)/C(=C\c2ccc(-c3cc(Cl)nc(Cl)c3)o2)NC1=S (centres unmarked) [Cmpd 80]
MIC, 25% Serum [1]: >250 µM
MIC, No Serum [1]: 62.5 µM (≈ 30.5 µg/mL)

CNC(=O)c1ccc(-c2ccc(/C=C3/NC(=S)N(C(Cc4ccccc4)C(=O)O)C3=O)o2)cc1 (centres unmarked) [Cmpd 81]
MIC, 25% Serum [1]: >250 µM
MIC, No Serum [1]: >250 µM

CNC(=O)c1ccc(Cl)c(-c2ccc(/C=C3/NC(=S)N(C(Cc4ccccc4)C(=O)O)C3=O)o2)c1Cl (centres unmarked) [Cmpd 82]
MIC, 25% Serum [1]: >250 µM
MIC, No Serum [1]: >250 µM

CNC(=O)c1cc(-c2ccc(/C=C3/NC(=S)N(C(Cc4ccccc4)C(=O)O)C3=O)o2)ccc1Cl (centres unmarked) [Cmpd 83]
MIC, 25% Serum [1]: >250 µM
MIC, No Serum [1]: >250 µM

O=C(O)C(Cc1ccccc1)N1C(=O)/C(=C\c2oc(Cl)nc2Cl)NC1=S (centres unmarked) [Cmpd 84]
MIC, 25% Serum [1]: >250 µM
MIC, No Serum [1]: >250 µM

CNC(=O)c1ccc(-c2ccc(/C=C3/NC(=S)N(C(Cc4ccccc4)C(=O)O)C3=O)o2)cc1Cl (centres unmarked) [Cmpd 85]
MIC, 25% Serum [1]: >250 µM
MIC, No Serum [1]: >250 µM

C=CCN1C(=O)/C(=C\c2ccc(-c3ccc(Cl)c(Cl)c3)o2)NC1=S [Cmpd 86]
MIC, 25% Serum [1]: >250 µM
MIC, No Serum [1]: >250 µM

CC(C)[C@H](C(=O)O)N1C(=O)C[C@H](NC(=O)c2cocc2-c2ccc(Cl)cc2)C1=O [Cmpd 87]
MIC, 25% Serum [1]: >250 µM
MIC, No Serum [1]: >250 µM

C=CCN1C(=O)/C(=C\c2cc(OCC)c(O)c(Br)c2Cl)NC1=S [Cmpd 88]
MIC, 25% Serum [1]: >250 µM
MIC, No Serum [1]: >250 µM

C=CCN1C(=O)/C(=C\c2cc(OC)c(O)c(Cl)c2Cl)NC1=S [Cmpd 89]
MIC, 25% Serum [1]: >250 µM
MIC, No Serum [1]: 250 µM (≈ 89.8 µg/mL)

COc1cc(/C=C2/NC(=S)N(C(Cc3ccccc3)C(=O)O)C2=O)c(Cl)c(Cl)c1O (centres unmarked) [Cmpd 90]
MIC, 25% Serum [1]: >250 µM
MIC, No Serum [1]: >250 µM

O=C(O)C(Cc1ccccc1)N1C(=O)/C(=C\c2cc3cc(Br)ccc3o2)NC1=S (centres unmarked) [Cmpd 91]
MIC, 25% Serum [1]: >250 µM
MIC, No Serum [1]: 125 µM (≈ 58.9 µg/mL)
